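1) Cells in 96-well plates. 2) Compound, 48 h, 5 concentrations. 3) Linear interpolation between surrounding doses. 4) Unreached endpoint = highest concentration. At the GI50, growth is halved. Definition used: TGI = concentration required for complete inhibition of growth.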
Columns and labels:
Experiment in all cases: growth of human tumour cells (NCI), 48 h
CCRF-CEM leukemia = system: CCRF-CEM leukemia
SF-295 CNS = system: SF-295 CNS
UO-31 renal = system: UO-31 renal
K-562 leukemia = system: K-562 leukemia
KM12 colon = system: KM12 colon
SK-MEL-5 melanoma = system: SK-MEL-5 melanoma
ACHN renal = system: ACHN renal
HOP-92 NSCLC = system: HOP-92 NSCLC
SN12C renal = system: SN12C renal
NCI-H522 lung = system: NCI-H522 lung
SNB-75 CNS = system: SNB-75 CNS
SW-620 colon = system: SW-620 colon
HT29 colon = system: HT29 colon
MALME-3M melanoma = system: MALME-3M melanoma
PC-3 prostate = system: PC-3 prostate
RPMI-8226 leukemia = system: RPMI-8226 leukemia
OVCAR-8 ovarian = system: OVCAR-8 ovarian
MDA-MB-468 breast = system: MDA-MB-468 breast
RXF 393 renal = system: RXF 393 renal
MDA-MB-231 breast = system: MDA-MB-231 breast
DU-145 prostate = system: DU-145 prostate
MOLT-4 leukemia = system: MOLT-4 leukemia
UACC-62 melanoma = system: UACC-62 melanoma
U251 CNS = system: U251 CNS
SNB-19 CNS = system: SNB-19 CNS
TK-10 renal = system: TK-10 renal
SK-MEL-28 melanoma = system: SK-MEL-28 melanoma
IGROV1 ovarian = system: IGROV1 ovarian
EKVX NSCLC = system: EKVX NSCLC
SK-OV-3 ovarian = system: SK-OV-3 ovarian
SF-539 CNS = system: SF-539 CNS
LOX IMVI melanoma = system: LOX IMVI melanoma
T-47D breast = system: T-47D breast
HCT-15 colon = system: HCT-15 colon
OVCAR-5 ovarian = system: OVCAR-5 ovarian
786-0 renal = system: 786-0 renal
HCC-2998 colon = system: HCC-2998 colon
CAKI-1 renal = system: CAKI-1 renal
SF-268 CNS = system: SF-268 CNS
NCI-H460 lung = system: NCI-H460 lung
NCI-H23 lung = system: NCI-H23 lung
MCF7 breast = system: MCF7 breast
OVCAR-4 ovarian = system: OVCAR-4 ovarian
UACC-257 melanoma = system: UACC-257 melanoma
SR leukemia = system: SR leukemia
COLO 205 colon = system: COLO 205 colon
A498 renal = system: A498 renal
HL-60(TB) leukemia = system: HL-60(TB) leukemia
HOP-62 NSCLC = system: HOP-62 NSCLC
NCI-H226 lung = system: NCI-H226 lung
OVCAR-3 ovarian = system: OVCAR-3 ovarian
A549 NSCLC = system: A549 NSCLC
HCT-116 colon = system: HCT-116 colon
BT-549 breast = system: BT-549 breast

Structure (SMILES): COc1cccc(C(N)=Nc2ccc(OCCCCCCn3cncn3)cc2)c1
- GI50 (CCRF-CEM leukemia): 1.04 µM
- TGI (CCRF-CEM leukemia): > 100 µM
- GI50 (SF-295 CNS): 1.5 µM
- TGI (SF-295 CNS): 30.7 µM
- GI50 (UO-31 renal): 4.51 µM
- TGI (UO-31 renal): > 100 µM
- GI50 (K-562 leukemia): 0.475 µM
- TGI (K-562 leukemia): > 100 µM
- GI50 (KM12 colon): 1.54 µM
- TGI (KM12 colon): > 100 µM
- GI50 (SK-MEL-5 melanoma): 1.47 µM
- TGI (SK-MEL-5 melanoma): 10.2 µM
- GI50 (ACHN renal): 4.26 µM
- TGI (ACHN renal): > 100 µM
- GI50 (HOP-92 NSCLC): 4.13 µM
- TGI (HOP-92 NSCLC): > 100 µM
- GI50 (SN12C renal): 3.61 µM
- TGI (SN12C renal): > 100 µM
- GI50 (NCI-H522 lung): 1.08 µM
- TGI (NCI-H522 lung): 3.96 µM
- GI50 (SNB-75 CNS): 1.91 µM
- TGI (SNB-75 CNS): > 100 µM
- GI50 (SW-620 colon): 0.537 µM
- TGI (SW-620 colon): > 100 µM
- GI50 (HT29 colon): 1.23 µM
- TGI (HT29 colon): 5.07 µM
- GI50 (MALME-3M melanoma): 1.57 µM
- TGI (MALME-3M melanoma): > 100 µM
- GI50 (PC-3 prostate): 1.86 µM
- TGI (PC-3 prostate): > 100 µM
- GI50 (RPMI-8226 leukemia): 2.82 µM
- TGI (RPMI-8226 leukemia): > 100 µM
- GI50 (OVCAR-8 ovarian): 3.16 µM
- TGI (OVCAR-8 ovarian): 28.1 µM
- GI50 (MDA-MB-468 breast): 0.429 µM
- TGI (MDA-MB-468 breast): > 100 µM
- GI50 (RXF 393 renal): 2.3 µM
- TGI (RXF 393 renal): > 100 µM
- GI50 (MDA-MB-231 breast): 1.7 µM
- TGI (MDA-MB-231 breast): 57.6 µM
- GI50 (DU-145 prostate): 3.05 µM
- TGI (DU-145 prostate): 51.6 µM
- GI50 (MOLT-4 leukemia): 3.19 µM
- TGI (MOLT-4 leukemia): > 100 µM
- GI50 (UACC-62 melanoma): 2.06 µM
- TGI (UACC-62 melanoma): > 100 µM
- GI50 (U251 CNS): 3.61 µM
- TGI (U251 CNS): > 100 µM
- GI50 (SNB-19 CNS): 4.45 µM
- TGI (SNB-19 CNS): > 100 µM
- GI50 (TK-10 renal): 6.48 µM
- TGI (TK-10 renal): > 100 µM
- GI50 (SK-MEL-28 melanoma): 4.6 µM
- TGI (SK-MEL-28 melanoma): > 100 µM
- GI50 (IGROV1 ovarian): 3.53 µM
- TGI (IGROV1 ovarian): > 100 µM
- GI50 (EKVX NSCLC): 2.92 µM
- TGI (EKVX NSCLC): > 100 µM
- GI50 (SK-OV-3 ovarian): 4.69 µM
- TGI (SK-OV-3 ovarian): > 100 µM
- GI50 (SF-539 CNS): 1.61 µM
- TGI (SF-539 CNS): 4.82 µM
- GI50 (LOX IMVI melanoma): 2.78 µM
- TGI (LOX IMVI melanoma): > 100 µM
- GI50 (T-47D breast): 3.32 µM
- TGI (T-47D breast): > 100 µM
- GI50 (HCT-15 colon): 2.43 µM
- TGI (HCT-15 colon): > 100 µM
- GI50 (OVCAR-5 ovarian): 3.18 µM
- TGI (OVCAR-5 ovarian): > 100 µM
- GI50 (786-0 renal): 0.628 µM
- TGI (786-0 renal): > 100 µM
- GI50 (HCC-2998 colon): 2.78 µM
- TGI (HCC-2998 colon): > 100 µM
- GI50 (CAKI-1 renal): 0.909 µM
- TGI (CAKI-1 renal): > 100 µM
- GI50 (SF-268 CNS): 4.3 µM
- TGI (SF-268 CNS): 86.2 µM
- GI50 (NCI-H460 lung): 1.18 µM
- TGI (NCI-H460 lung): 22.1 µM
- GI50 (NCI-H23 lung): 3.44 µM
- TGI (NCI-H23 lung): > 100 µM
- GI50 (MCF7 breast): 0.465 µM
- TGI (MCF7 breast): > 100 µM
- GI50 (OVCAR-4 ovarian): 12.8 µM
- TGI (OVCAR-4 ovarian): > 100 µM
- GI50 (UACC-257 melanoma): 8.67 µM
- TGI (UACC-257 melanoma): > 100 µM
- GI50 (SR leukemia): 0.537 µM
- TGI (SR leukemia): > 100 µM
- GI50 (COLO 205 colon): 1.75 µM
- TGI (COLO 205 colon): 10.3 µM
- GI50 (A498 renal): 26.1 µM
- TGI (A498 renal): > 100 µM
- GI50 (HL-60(TB) leukemia): 0.567 µM
- TGI (HL-60(TB) leukemia): 42.9 µM
- GI50 (HOP-62 NSCLC): 4.13 µM
- TGI (HOP-62 NSCLC): > 100 µM
- GI50 (NCI-H226 lung): 2.67 µM
- TGI (NCI-H226 lung): 9.75 µM
- GI50 (OVCAR-3 ovarian): 0.601 µM
- TGI (OVCAR-3 ovarian): 3.36 µM
- GI50 (A549 NSCLC): 2.86 µM
- TGI (A549 NSCLC): > 100 µM
- GI50 (HCT-116 colon): 0.439 µM
- TGI (HCT-116 colon): > 100 µM
- GI50 (BT-549 breast): 0.957 µM
- TGI (BT-549 breast): > 100 µM

From PubChem BioAssay (NCI)
